# Test results taken from ChEMBL document CHEMBL1909046, “DrugMatrix in vitro pharmacology data”.
# Assays:
# Cytochrome P450 2E1 = Cytochrome P450 2E1 (Homo sapiens, UniProt P05181); details: bti-tn-5b1-4; further: in other assays of this panel Not Active means under 50% inhibition at 10 µM
# [1] = biological target: Sigma non-opioid intracellular receptor 1 (Homo sapiens, UniProt Q99720); assay: DRUGMATRIX: Sigma1 radioligand binding (ligand: [3H] Haloperidol); format: cell membranes, Jurkat, Membrane; details: Not Active = under 50% inhibition at 10 µM
# Sigma non-opioid intracellular receptor 1, sequence (Q99720 whole entry): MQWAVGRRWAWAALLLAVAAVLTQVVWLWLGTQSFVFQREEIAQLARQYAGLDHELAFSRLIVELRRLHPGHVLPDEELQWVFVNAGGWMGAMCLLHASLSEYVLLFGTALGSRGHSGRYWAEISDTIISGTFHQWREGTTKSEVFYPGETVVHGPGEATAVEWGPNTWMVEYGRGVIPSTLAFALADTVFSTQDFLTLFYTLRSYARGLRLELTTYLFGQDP
# [2] = DRUGMATRIX: Glutamate, NMDA, Agonism radioligand binding (ligand: [3H] CGP-39653); format: cell membranes, Rattus norvegicus, Wistar, Cerebral cortex, Membrane; details: Not Active = under 50% inhibition at 10 µM
# Leukotriene C4 synthase = biological target: T1, Leukotriene C4 synthase (Cavia porcellus, UniProt A6XA80); format: tissue-based, Lung;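 further: enzyme inhibition assay of leukotriene C4 synthase, using LTA4 as the substrate; in other assays of this panel Not Active means under 50% inhibition at 10 µM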
# T1 sequence (A6XA80 whole entry): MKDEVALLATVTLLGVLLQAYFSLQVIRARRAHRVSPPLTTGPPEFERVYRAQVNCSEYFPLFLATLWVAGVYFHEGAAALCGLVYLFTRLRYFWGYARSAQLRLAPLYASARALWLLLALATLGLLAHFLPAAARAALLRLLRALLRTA
# Neutrophil elastase = biological target: T2, Neutrophil elastase (Homo sapiens, UniProt P08246); format: tissue-based;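 further: inhibition of neutrophil elastase enzyme activity, measured with a p-nitroanilide-linked peptide substrate; in other assays of this panel Not Active means under 50% inhibition at 10 µM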
# T2 sequence (P08246 whole entry): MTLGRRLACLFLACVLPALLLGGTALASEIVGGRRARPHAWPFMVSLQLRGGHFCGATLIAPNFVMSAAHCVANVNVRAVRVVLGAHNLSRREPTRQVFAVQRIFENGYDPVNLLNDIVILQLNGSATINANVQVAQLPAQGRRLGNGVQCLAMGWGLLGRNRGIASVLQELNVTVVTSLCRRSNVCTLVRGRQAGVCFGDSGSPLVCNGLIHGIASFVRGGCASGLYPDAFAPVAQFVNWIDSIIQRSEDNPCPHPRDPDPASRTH
# [3] = biological target: Tyrosine-protein kinase Fyn (Homo sapiens, UniProt P06241); assay: biochemical; format: cell-based, Insect cells;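 further: enzymatic inhibition of Fyn kinase activity measured with Poly(Glu:Tyr) as the phosphorylation substrate; in other assays of this panel Not Active means under 50% inhibition at 10 µM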
# Tyrosine-protein kinase Fyn, sequence (P06241 whole entry): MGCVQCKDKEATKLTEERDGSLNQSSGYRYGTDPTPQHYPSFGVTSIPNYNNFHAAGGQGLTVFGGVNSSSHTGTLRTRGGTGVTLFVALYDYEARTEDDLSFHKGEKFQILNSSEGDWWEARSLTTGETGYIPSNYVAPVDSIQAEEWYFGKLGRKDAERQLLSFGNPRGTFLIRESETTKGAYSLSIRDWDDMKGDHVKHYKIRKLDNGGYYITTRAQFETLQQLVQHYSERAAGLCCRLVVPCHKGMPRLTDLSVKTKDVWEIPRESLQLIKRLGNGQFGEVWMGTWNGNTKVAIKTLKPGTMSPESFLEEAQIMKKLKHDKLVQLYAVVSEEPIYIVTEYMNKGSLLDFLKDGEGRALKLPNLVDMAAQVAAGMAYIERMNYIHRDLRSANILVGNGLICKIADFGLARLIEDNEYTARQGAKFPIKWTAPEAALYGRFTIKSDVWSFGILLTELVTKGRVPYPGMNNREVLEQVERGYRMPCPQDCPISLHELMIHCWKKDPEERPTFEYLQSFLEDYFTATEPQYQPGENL
# [4] = DRUGMATRIX: Phosphodiesterase PDE3 enzyme inhibition (substrate: [3H]cAMP + cAMP); format: tissue-based, Homo sapiens; details: platelet; Not Active = under 50% inhibition at 10 µM
# Cytochrome P450 2E1, sequence (P05181 whole entry): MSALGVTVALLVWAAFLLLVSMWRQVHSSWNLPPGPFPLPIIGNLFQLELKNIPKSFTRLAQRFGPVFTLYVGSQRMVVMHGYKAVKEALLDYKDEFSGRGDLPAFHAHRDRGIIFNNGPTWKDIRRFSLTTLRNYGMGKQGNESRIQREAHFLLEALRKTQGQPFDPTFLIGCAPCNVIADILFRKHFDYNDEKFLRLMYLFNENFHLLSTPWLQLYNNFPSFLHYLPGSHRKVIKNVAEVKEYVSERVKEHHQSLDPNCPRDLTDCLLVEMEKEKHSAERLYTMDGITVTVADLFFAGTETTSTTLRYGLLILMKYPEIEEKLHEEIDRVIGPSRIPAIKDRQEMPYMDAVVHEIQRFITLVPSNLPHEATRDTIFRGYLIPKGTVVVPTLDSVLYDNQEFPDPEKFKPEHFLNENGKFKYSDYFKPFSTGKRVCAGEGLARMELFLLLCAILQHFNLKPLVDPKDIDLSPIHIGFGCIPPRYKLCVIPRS
SMILES,IC50 (Cytochrome P450 2E1),Ki (Cytochrome P450 2E1),IC50 ([1]; jurkat),IC50 [2],Ki [2],IC50 (Leukotriene C4 synthase),IC50 (Neutrophil elastase),IC50 ([3]; insect cells),IC50 [4],Ki [4],IC50 ([3]; read-out: IC50),IC50 ([1]; read-out: IC50),Ki ([1]; read-out: Ki)
CC1(C)O[C@@H]2C[C@H]3[C@@H]4C[C@H](F)C5=CC(=O)C=C[C@]5(C)[C@H]4[C@@H](O)C[C@]3(C)[C@]2(C(=O)CO)O1 [FLUNISOLIDE],Not Active,Not Active,Not Active,Not Active,Not Active,Not Active,Not Active,Not Active,Not Active,Not Active,–,–,–
CC1(C)O[C@@H]2C[C@H]3[C@@H]4C[C@H](F)C5=CC(=O)C=C[C@]5(C)[C@@]4(F)[C@@H](O)C[C@]3(C)[C@]2(C(=O)CO)O1 [FLUOCINOLONE ACETONIDE],Not Active,Not Active,Not Active,Not Active,Not Active,Not Active,Not Active,Not Active,Not Active,Not Active,–,–,–
CC1(C)O[C@@H]2C[C@H]3[C@@H]4C[C@H](F)C5=CC(=O)CC[C@]5(C)[C@H]4[C@@H](O)C[C@]3(C)[C@]2(C(=O)CO)O1 [FLURANDRENOLIDE],Not Active,Not Active,Not Active,Not Active,Not Active,Not Active,Not Active,Not Active,Not Active,Not Active,–,–,–
CN(C)c1ccc(C(=C2C=CC(=[N+](C)C)C=C2)c2ccc(N(C)C)cc2)cc1.[Cl-] [GENTIAN VIOLET],Not Active,Not Active,Not Active,Not Active,Not Active,Not Active,Not Active,–,Not Active,Not Active,2150 nM,–,–
Cc1ccc(S(=O)(=O)NC(=O)NN2CC3CCCC3C2)cc1 (stereo unspecified) [GLICLAZIDE],Not Active,Not Active,Not Active,Not Active,Not Active,Not Active,Not Active,Not Active,Not Active,Not Active,–,–,–
CC(C)Cc1ccc(C(C)C(=O)O)cc1 (stereo unspecified) [IBUPROFEN],Not Active,Not Active,Not Active,Not Active,Not Active,Not Active,Not Active,Not Active,Not Active,Not Active,–,–,–
COc1ccc2c(c1)c(CC(=O)O)c(C)n2C(=O)c1ccc(Cl)cc1 [INDOMETHACIN],Not Active,Not Active,Not Active,Not Active,Not Active,Not Active,Not Active,Not Active,Not Active,Not Active,–,–,–
CCc1c2c(nc3ccc(OC(=O)N4CCC(N5CCCCC5)CC4)cc13)-c1cc3c(c(=O)n1C2)COC(=O)[C@]3(O)CC [IRINOTECAN],Not Active,Not Active,Not Active,Not Active,Not Active,Not Active,Not Active,Not Active,Not Active,Not Active,–,–,–
CC(C(=O)O)c1cccc(C(=O)c2ccccc2)c1 (stereo unspecified) [KETOPROFEN],Not Active,Not Active,Not Active,Not Active,Not Active,Not Active,Not Active,Not Active,Not Active,Not Active,–,–,–
Nc1ccn([C@@H]2CS[C@H](CO)O2)c(=O)n1 [LAMIVUDINE],Not Active,Not Active,Not Active,Not Active,Not Active,Not Active,Not Active,Not Active,Not Active,Not Active,–,–,–
O=S(=O)([O-])CCS.[Na+] [MESNA],Not Active,Not Active,Not Active,Not Active,Not Active,Not Active,Not Active,Not Active,Not Active,Not Active,–,–,–
C#C[C@]1(O)CC[C@H]2[C@@H]3CCc4cc(OC)ccc4[C@H]3CC[C@@]21C [MESTRANOL],Not Active,Not Active,Not Active,Not Active,Not Active,Not Active,Not Active,Not Active,Not Active,Not Active,–,–,–
CC(=O)Nc1cccc(O)c1 [METACETAMOL],Not Active,Not Active,Not Active,Not Active,Not Active,Not Active,Not Active,Not Active,Not Active,Not Active,–,–,–
Cc1ncc([N+](=O)[O-])n1CCO [METRONIDAZOLE],Not Active,Not Active,Not Active,Not Active,Not Active,Not Active,Not Active,Not Active,Not Active,Not Active,–,–,–
CC(C)(C(=O)c1cccnc1)c1cccnc1 [METYRAPONE],Not Active,Not Active,Not Active,Not Active,Not Active,Not Active,Not Active,Not Active,Not Active,Not Active,–,–,–
Oc1ccc(OCc2ccccc2)cc1 [MONOBENZONE],Not Active,Not Active,Not Active,Not Active,Not Active,Not Active,Not Active,Not Active,Not Active,Not Active,–,–,–
CC(C)(Oc1ccc(C2CCCc3ccccc32)cc1)C(=O)O (stereo unspecified) [NAFENOPIN],Not Active,Not Active,Not Active,Not Active,Not Active,Not Active,Not Active,Not Active,Not Active,Not Active,–,–,–
CC(C)[C@H]1CC[C@H](C(=O)N[C@H](Cc2ccccc2)C(=O)O)CC1 [NATEGLINIDE],Not Active,Not Active,Not Active,Not Active,Not Active,Not Active,Not Active,Not Active,Not Active,Not Active,–,–,–
CCN[C@@H]1C[C@H](N)[C@@H](O[C@H]2OC(CN)=CC[C@H]2N)[C@H](O)[C@H]1O[C@H]1OC[C@](C)(O)[C@H](NC)[C@H]1O [NETILMICIN],Not Active,Not Active,Not Active,Not Active,Not Active,Not Active,Not Active,Not Active,Not Active,Not Active,–,–,–
COC(=O)C1=C(C)NC(C)=C(C(=O)OCC(C)C)C1c1ccccc1[N+](=O)[O-] (stereo unspecified) [NISOLDIPINE],Not Active,Not Active,Not Active,Not Active,Not Active,Not Active,Not Active,Not Active,Not Active,Not Active,–,–,–
CCOC(=O)C1=C(C)NC(C)=C(C(=O)OC)C1c1cccc([N+](=O)[O-])c1 (stereo unspecified) [NITRENDIPINE],Not Active,Not Active,Not Active,Not Active,Not Active,Not Active,Not Active,Not Active,Not Active,Not Active,–,–,–
C#C[C@]1(OC(C)=O)CC[C@H]2[C@@H]3CCC4=CC(=O)CC[C@@H]4[C@H]3CC[C@@]21C [NORETHINDRONE ACETATE],Not Active,Not Active,Not Active,Not Active,Not Active,Not Active,Not Active,Not Active,Not Active,Not Active,–,–,–
COc1ccc2[nH]c([S+]([O-])Cc3ncc(C)c(OC)c3C)nc2c1 (stereo unspecified) [OMEPRAZOLE],Not Active,Not Active,Not Active,Not Active,Not Active,Not Active,Not Active,Not Active,Not Active,Not Active,–,–,–
Cc1nccn1CC1CCc2c(c3ccccc3n2C)C1=O (stereo unspecified) [ONDANSETRON],Not Active,Not Active,Not Active,Not Active,Not Active,Not Active,Not Active,Not Active,Not Active,Not Active,–,–,–
CCCCOc1ccc(OCCCN2CCOCC2)cc1 [PRAMOXINE],Not Active,Not Active,–,Not Active,Not Active,Not Active,Not Active,Not Active,Not Active,Not Active,–,121 nM,51 nM
